Data reported in ChEMBL document CHEMBL5154875, “Discovery of Potent Orally Bioavailable WD Repeat Domain 5 (WDR5) Inhibitors Using a Pharmacophore-Based Optimization” (J Med Chem, 2022).
pIC50, pKi: −log10 of the molar value. In brackets after ≈: the same amount, converted by molar mass.

Experiments:
[1] = Volume of distribution at steady state in CD-1 mouse at 3 mg/kg, iv measured 0.083 to 24 hrs post-treatment by LC-MS/MS analysis; assay type: ADME, organism-based; conditions: in vivo, time 0.083-24 hrs; for Vdss: mouse, iv, 3 mg/kg
MOLM-13 = experiment: Anti-proliferative activity against human MOLM-13 cells assessed as inhibition of cell proliferation incubated for 5 days by Cell Titre Glo luminescent assay; assay type: functional; conditions: time 5 day
[2] = Kinetic aqueous solubility of compound at pH 7.4; assay type: physicochemical; conditions: buffer
[3] = molecular target: T1, WD repeat-containing protein 5 (Homo sapiens, UniProt P61964); experiment: Inhibition of N-terminal 6xHis-SUMO-tagged human WDR5 (22 to 334 residues) expressed in Escherichia coli BL21-Gold (DE3) cells assessed as inhibition constant incubated for 1 hr by TR-FRET assay
[4] = Acute toxicity in CD-1 mouse assessed as lowered body temperature at 3 mg/kg, iv measured 0.083 to 24 hrs post-treatment by LC-MS/MS analysis; assay type: organism-based; conditions: in vivo, time 0.083-24 hrs
[5] = Effective permeability of compound in PBS at pH 7.4 at 100 uM incubated for 5 hrs by PAMPA assay; assay type: ADME; conditions: pH 7.4, 5 h
[6] = Acute toxicity in CD-1 mouse assessed as lethality at 3 mg/kg, iv measured 0.083 to 24 hrs post-treatment by LC-MS/MS analysis; assay type: organism-based; conditions: in vivo, time 0.083-24 hrs
MV4-11 [7] = experiment: Anti-proliferative activity against human MV4-11 cells assessed as inhibition of cell proliferation incubated for 5 days by Cell Titre Glo luminescent assay; assay type: functional; conditions: time 5 day
K562 = experiment: Anti-proliferative activity against human K562 cells assessed as inhibition of cell proliferation incubated for 5 days by Cell Titre Glo luminescent assay; assay type: functional; conditions: time 5 day
[8] = Acute toxicity in CD-1 mouse assessed as reduced locomotive activity at 3 mg/kg, iv measured 0.083 to 24 hrs post-treatment by LC-MS/MS analysis; assay type: organism-based; conditions: in vivo, time 0.083-24 hrs
[9] = AUC (0 to infinity) in CD-1 mouse at 3 mg/kg, iv measured 0.083 to 24 hrs post-treatment by LC-MS/MS analysis; assay type: ADME, organism-based; design: time upper 24 hrs, time lower 0.083 hrs, dose 3 mg/kg, route iv; conditions: in vivo; for AUC: mouse
[10] = Clearance in CD-1 mouse at 3 mg/kg, iv measured 0.083 to 24 hrs post-treatment by LC-MS/MS analysis; conditions: in vivo, BLD = below limit of detection
[11] = molecular target: T1, WD repeat-containing protein 5; experiment: Inhibition of 5- FAM labeled tracer binding to N-terminal His6-SUMO-tagged WDR5 (24 to 334 residues) (unknown origin) expressed in Escherichia coli Rosetta 2 (DE3) cells incubated for 3 hrs by fluorescence polarization based competitive binding assay
MV4-11 [12] = experiment: Anti-proliferative activity against human MV4-11 cells harboring MLL fusion protein assessed as inhibition of cell viability treated for 72 hrs by CCK-8 assay; assay type: functional, cell-based; conditions: MV4-11, 72 h
[13] = molecular target: Histone-lysine N-methyltransferase 2A/WDR5 (Homo sapiens, UniProt P61964); experiment: Inhibition of MLL1-WDR5 (unknown origin) interaction using 10mer-Thr-FAM as substrate by fluorescence polarization based competitive binding assay; assay type: protein assay
[14] = AUC (0 to infinity) in CD-1 mouse at 10 mg/kg, po measured 0.083 to 24 hrs post-treatment by LC-MS/MS analysis; assay type: ADME, organism-based; design: dose 10 mg/kg, time upper 24 hrs, time lower 0.083 hrs, route po; conditions: in vivo
[15] = Oral bioavailability in CD-1 mouse at 10 mg/kg measured 0.083 to 24 hrs post-treatment by LC-MS/MS analysis; assay type: ADME, organism-based; conditions: in vivo, time 0.083-24 hrs
[16] = Cmax in CD-1 mouse at 10 mg/kg, po measured 0.083 to 24 hrs post-treatment by LC-MS/MS analysis; assay type: ADME, organism-based; design: time lower 0.083 hrs, dose 10 mg/kg, time upper 24 hrs, route po; conditions: in vivo
[17] = molecular target: T1, WD repeat-containing protein 5; experiment: Competitive binding affinity to N-terminal 6xHis-SUMO-tagged human WDR5 (22 to 334 residues) expressed in Escherichia coli BL21-Gold (DE3) cells assessed as inhibition constant using 10-mer-Thr-FAM peptide as substrate incubated for 1 hr by Lantha Screen based TR-FRET assay
[18] = Half life in CD-1 mouse at 10 mg/kg, po measured 0.083 to 24 hrs post-treatment by LC-MS/MS analysis; assay type: ADME, organism-based; conditions: mouse, in vivo, po, 10 mg/kg, time 0.083-24 hrs
[19] = Metabolic stability of compound in rat liver microsome assessed as intrinsic clearance at 1 uM measured upto 45 mins by LCMS analysis; assay type: ADME, microsomes
[20] = Kinetic solubility of compound in PBS at pH 7.4 at 100 uM incubated for 1 hr by UV-visible spectroscopy analysis; assay type: physicochemical
[21] = Metabolic stability of compound in rat liver microsome assessed as half life at 1 uM measured upto 45 mins by LCMS analysis; assay type: ADME, microsomes
[22] = Clearance in CD-1 mouse at 3 mg/kg, iv measured 0.083 to 24 hrs post-treatment by LC-MS/MS analysis; assay type: ADME, organism-based; conditions: in vivo, time 0.083-24 hrs

In the case of `COc1cc(CN2CCc3c(cc(Cn4ccn(C)c4=N)cc3-c3ccc(F)cc3C)C2=O)cc(OC)c1`, the Vdss [1] was 16 L/kg, the GI50 (MOLM-13; Homo sapiens, MOLM-13, 120 h) was 78 nM and the Kinetic_solubility [2] was 29 µM. For the same molecule, the pKi [3] was greater than 10.70, the Activity [4] was “Toxic” and the permeability [5] was < 0.6 10^-6 cm/s. For the same molecule, the Activity [6] was “Toxic”, the GI50 (MV4-11 [7]; Homo sapiens, MV4-11, 120 h) was 38 nM and the GI50 (K562; Homo sapiens, K562, 120 h) was 8000 nM. For the same molecule, the Activity [8] was “Toxic”, the AUC [9] was 642 ng·h/mL and the CL [10] was “Bld”.
For `CC[C@@H]1NC(=O)[C@H](CCCNC(=N)NC)NC(=O)[C@](C)(NC(=O)C(C)C)CCNC(=O)[C@@H](c2ccccc2)NC1=O`, the pKi [11] was greater than 9.00.
In the case of `CN1CCN(c2cc(F)c(-c3ccc(NC(=O)N(C)C)cc3)cc2Nc2ncnc(Cl)c2N)CC1`, the pIC50 (MV4-11 [12]) was 4.90 and the pIC50 [13] was 7.54.
`CCn1cc(-c2cc(Cn3ccnc3C)cc3c2CCN([C@@H](C)c2cc(OC)ccn2)C3=O)c(C(F)(F)F)n1` (stereo in doubt; 34) showed an AUC ([14]; mouse) of 397 ng·h/mL, an F ([15]; mouse, po, 10 mg/kg) of 28% and a Vdss [1] of 3.8 L/kg. It also gave a GI50 (MOLM-13; Homo sapiens, MOLM-13, 120 h) of 26 nM, a Cmax ([16]; mouse) of 279 ng/mL and a pKi [17] greater than 10.70. For the same molecule, the GI50 (MV4-11 [7]; Homo sapiens, MV4-11, 120 h) was 11 nM, the t1/2 [18] was 72 min and the GI50 (K562; Homo sapiens, K562, 120 h) was 2200 nM. For the same molecule, the CLH ([19]; microsomes, 0.75 h, 1 µM) was 60 µL/min/mg, the Kinetic_solubility ([20]; buffer, pH 7.4, 1 h, 100 µM) was 80 µM and the t1/2 ([21]; microsomes, 0.75 h, 1 µM) was 12 min. It also gave an AUC [9] of 429 ng·h/mL.
`CCn1cc(-c2cc(Cn3ccnc3C)cc3c2CCN([C@@H](C)c2cc(OC)ccn2)C3=O)c(C(F)(F)F)n1` (stereo in doubt; 38) showed an AUC(0-inf) ([14]; CD-1, mouse) of 1710 ng·h/mL, a bioavailability ([15]; CD-1, mouse) of 73% and a Vd ([1]; CD-1, mouse, read-out: Vdss) of 2.3 L/kg. It also gave a GI50 (MOLM-13; 120 h) of 19 nM, a Cmax ([16]; CD-1, mouse, read-out: Cmax) of 2010 ng/mL and a GI50 (MV4-11 [7]; 120 h) of 9.7 nM. It also gave a clearance [22] of 76 mL/min/kg, a GI50 (K562; 120 h) of 1900 nM and a microsomal CLint at 1 µM ([19]; liver microsomes, read-out: CLH) of 31 µL/min/mg. For the same molecule, the solubility kinetic at 1 h, 100 µM ([20]; PBS, pH 7.4, read-out: Kinetic_solubility) was 86 µM (≈ 46.3 µg/mL), the half-life at 1 µM ([21]; liver microsomes) was 22 min and the AUC(0-inf) ([9]; CD-1, mouse) was 707 ng·h/mL.
